pIC50: −log10 of the molar value. Read-outs that look alike come from different tables or passages of the source.
How the values were obtained:
Test in all cases: Off-chip Mobility Shift Assay (MSA method), kinase inhibition
Type in all cases: biochemical
PKACβ = PKACβ (Homo sapiens, UniProt P22694); settings: for inhibition at 0.1 µM: read-out: inhibition (%) PKACβ
Procedure: (§1) For compound k-1:B-1, inhibitory activity evaluation (calculation of 50% inhibitory concentration (IC50)) was performed on 8 kinds of kinases (CGK2, LATS2, MSK1, p70S6K, PKACα, PKACβ, SGK2, SGK3). The activity was measured using the Off-chip Mobility Shift Assay (MSA method) described below. The compound was added such that the test concentration of k-1:B-1 was in 10 steps from the final concentration of 10 μM to 0.3 nM.
(§2) As an analysis method of the data, the mean signal of the control well containing all reaction components was set to 0% inhibition, the mean signal without enzyme addition was set to 100% inhibition, and the inhibition rate was calculated from the mean signal of 2 wells of each test substance test. The IC50 value was obtained by approximating a plot based on the test substance concentration and inhibition rate to a 4 parameter logistics curve by using the Excel Solver add-in and by the non-linear least squares method.
(§3) 5 μL of k-1:B-1 solution at 4-fold concentration, 5 μL of substrate/ATP/metal solution at 4-fold concentration, and 10 μL of kinase solution at 2-fold concentration, each prepared with assay buffer (20 mM HEPES, 0.01% Triton X-100, 2 mM DTT, pH 7.5), were mixed in the wells of a polypropylene 384-well plate and reacted at room temperature for 1 or 5 hr. Successively, 70 μL of Termination Buffer (QuickScout Screening Assist MSA; Carna Biosciences) was added to discontinue the reaction. Then, the substrate peptide and the phosphorylated peptide in the reaction solution were separated and quantified by the LabChip system (Perkin Elmer). The kinase reaction was evaluated by the resultant product ratio (P/(P+S)) calculated from the substrate peptide peak height (S) and the phosphorylated peptide peak height (P).
(§4) For compounds k-1:H-7, k-1:H-1, k-1:D-1, k-1:J-1, and k-1:B-1, inhibitory rate at 100 nM was calculated on 8 kinds of kinases (CGK2, LATS2, MSK1, p70S6K, PKACα, PKACβ, SGK2, SGK3). The activity was measured using the MSA method. As an analysis method of the data, the mean signal of the control well containing all reaction components was set to 0% inhibition, the mean signal without enzyme addition was set to 100% inhibition, and the inhibition rate was calculated from the mean signal of 2 wells of each test substance test.
as §3, with “a compound” for “k-1:B-1”

CGK2 = target: T1, CGK2 (Homo sapiens, UniProt Q13237); settings: for inhibition at 0.1 µM: read-out: inhibition (%) CGK2
T1 sequence (Q13237 1-762): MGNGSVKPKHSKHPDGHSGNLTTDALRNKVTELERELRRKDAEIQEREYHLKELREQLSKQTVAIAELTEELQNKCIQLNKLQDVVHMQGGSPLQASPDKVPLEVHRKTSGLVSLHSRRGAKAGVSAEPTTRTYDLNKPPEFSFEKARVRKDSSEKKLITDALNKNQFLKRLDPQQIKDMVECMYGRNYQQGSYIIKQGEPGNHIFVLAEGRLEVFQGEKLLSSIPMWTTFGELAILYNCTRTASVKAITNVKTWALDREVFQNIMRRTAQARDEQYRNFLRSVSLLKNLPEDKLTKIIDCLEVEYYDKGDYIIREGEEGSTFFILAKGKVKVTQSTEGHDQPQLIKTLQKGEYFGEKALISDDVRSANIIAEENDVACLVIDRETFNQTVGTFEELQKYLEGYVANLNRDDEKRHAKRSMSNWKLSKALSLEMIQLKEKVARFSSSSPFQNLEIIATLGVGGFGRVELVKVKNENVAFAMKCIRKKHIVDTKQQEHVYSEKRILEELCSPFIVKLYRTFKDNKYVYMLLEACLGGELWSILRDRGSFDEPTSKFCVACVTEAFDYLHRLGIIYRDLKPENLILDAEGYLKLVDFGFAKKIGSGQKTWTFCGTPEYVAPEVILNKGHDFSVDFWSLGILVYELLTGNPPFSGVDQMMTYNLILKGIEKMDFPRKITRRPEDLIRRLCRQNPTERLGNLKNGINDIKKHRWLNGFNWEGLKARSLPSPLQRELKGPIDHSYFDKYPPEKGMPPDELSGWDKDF
Procedure: as §1, §2, §3, §4
as §3, with “a compound” for “k-1:B-1”

PKACα = PKACα (Homo sapiens, UniProt P17612); settings: for inhibition at 0.1 µM: read-out: inhibition (%) PKACα
Procedure: as §1, §2, §3, §4
as §3, with “a compound” for “k-1:B-1”

SGK2 = target: T2, SGK2 (Homo sapiens, UniProt Q9HBY8); settings: for inhibition at 0.1 µM: read-out: inhibition (%) SGK2
T2 sequence (Q9HBY8 1-367): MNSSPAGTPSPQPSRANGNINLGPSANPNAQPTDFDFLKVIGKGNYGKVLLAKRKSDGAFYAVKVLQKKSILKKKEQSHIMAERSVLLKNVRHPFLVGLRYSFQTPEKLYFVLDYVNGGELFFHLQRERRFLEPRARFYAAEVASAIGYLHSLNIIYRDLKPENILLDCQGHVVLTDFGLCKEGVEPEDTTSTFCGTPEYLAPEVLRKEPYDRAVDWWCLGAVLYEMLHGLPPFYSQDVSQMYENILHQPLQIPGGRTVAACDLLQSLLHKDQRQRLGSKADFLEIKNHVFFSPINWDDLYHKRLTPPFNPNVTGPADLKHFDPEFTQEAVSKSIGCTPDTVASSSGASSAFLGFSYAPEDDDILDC
Procedure: as §1, §2, §3, §4
as §3, with “a compound” for “k-1:B-1”

MSK1 = MSK1 (Homo sapiens, UniProt O75582); settings: for inhibition at 0.1 µM: read-out: inhibition (%) MSK1
MSK1, sequence (O75582 whole entry): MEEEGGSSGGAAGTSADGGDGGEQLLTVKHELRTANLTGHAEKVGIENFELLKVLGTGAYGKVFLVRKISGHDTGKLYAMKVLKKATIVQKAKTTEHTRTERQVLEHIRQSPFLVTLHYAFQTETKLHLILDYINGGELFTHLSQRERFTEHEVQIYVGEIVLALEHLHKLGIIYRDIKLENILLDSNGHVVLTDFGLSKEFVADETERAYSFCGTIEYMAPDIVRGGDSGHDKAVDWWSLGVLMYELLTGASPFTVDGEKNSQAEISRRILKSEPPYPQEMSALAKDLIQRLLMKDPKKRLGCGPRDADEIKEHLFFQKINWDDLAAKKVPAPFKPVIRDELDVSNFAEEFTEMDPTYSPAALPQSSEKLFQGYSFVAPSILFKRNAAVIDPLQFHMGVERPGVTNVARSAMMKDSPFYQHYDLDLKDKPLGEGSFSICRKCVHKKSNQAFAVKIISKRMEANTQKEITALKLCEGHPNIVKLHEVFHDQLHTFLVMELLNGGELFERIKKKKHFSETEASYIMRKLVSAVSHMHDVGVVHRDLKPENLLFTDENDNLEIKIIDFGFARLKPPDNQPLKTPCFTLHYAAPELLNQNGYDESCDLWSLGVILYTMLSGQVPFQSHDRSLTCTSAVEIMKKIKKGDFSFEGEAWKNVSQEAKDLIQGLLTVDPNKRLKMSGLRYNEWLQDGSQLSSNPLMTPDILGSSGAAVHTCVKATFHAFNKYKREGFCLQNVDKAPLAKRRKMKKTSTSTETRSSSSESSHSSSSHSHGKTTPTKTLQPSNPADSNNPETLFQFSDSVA
Procedure: as §1, §2, §3, §4
as §3, with “a compound” for “k-1:B-1”

p70S6K = p70S6K (Homo sapiens, UniProt P23443); settings: for inhibition at 0.1 µM: read-out: inhibition (%) p70S6K
p70S6K, sequence (P23443 whole entry): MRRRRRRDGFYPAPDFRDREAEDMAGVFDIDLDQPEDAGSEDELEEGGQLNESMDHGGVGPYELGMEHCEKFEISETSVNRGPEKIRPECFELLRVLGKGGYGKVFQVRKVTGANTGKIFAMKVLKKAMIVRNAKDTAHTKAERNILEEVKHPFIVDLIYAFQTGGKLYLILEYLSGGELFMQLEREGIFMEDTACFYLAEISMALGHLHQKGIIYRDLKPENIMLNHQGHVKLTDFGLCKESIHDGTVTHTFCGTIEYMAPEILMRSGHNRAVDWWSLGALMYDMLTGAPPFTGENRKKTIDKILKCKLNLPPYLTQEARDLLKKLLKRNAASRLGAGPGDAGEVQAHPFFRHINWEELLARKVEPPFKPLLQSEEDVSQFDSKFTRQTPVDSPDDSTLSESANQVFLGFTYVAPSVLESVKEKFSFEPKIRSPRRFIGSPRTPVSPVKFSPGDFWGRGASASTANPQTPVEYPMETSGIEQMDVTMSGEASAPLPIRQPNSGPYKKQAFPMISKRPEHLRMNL
Procedure: as §1, §2, §3, §4
as §3, with “a compound” for “k-1:B-1”

[1] = MSA method, 10 steps from 10 μM to 0.3 nM

| SMILES | pIC50 (PKACβ; [1]) | inhibition at 0.1 µM (PKACβ; at 100 nM, MSA method) | pIC50 (CGK2; [1]) | inhibition at 0.1 µM (CGK2; at 100 nM, MSA method) | pIC50 (PKACα; [1]) | inhibition at 0.1 µM (PKACα; at 100 nM, MSA method) | pIC50 (SGK2; [1]) | inhibition at 0.1 µM (SGK2; at 100 nM, MSA method) | pIC50 (MSK1; [1]) | inhibition at 0.1 µM (MSK1; at 100 nM, MSA method) | pIC50 (p70S6K; [1]) | inhibition at 0.1 µM (p70S6K; at 100 nM, MSA method) | inhibition at 0.1 µM (PKACβ) | inhibition at 0.1 µM (CGK2) | inhibition at 0.1 µM (PKACα) | inhibition at 0.1 µM (SGK2) | inhibition at 0.1 µM (MSK1) | inhibition at 0.1 µM (p70S6K) |
| --- | --- | --- | --- | --- | --- | --- | --- | --- | --- | --- | --- | --- | --- | --- | --- | --- | --- | --- |
| CC/C(=N\NC(=O)C(C)Nc1ccccc1)c1ccc(O)c(C)c1O (stereo not drawn) [k-1:B-1] | 7.53 | 80.1% | 7.52 | 83.2% | 7.63 | 82.8% | 7.88 | 87.3% | 7.76 | 87.7% | 7.38 | 67.6% | – | – | – | – | – | – |
| CC/C(=N\NC(=O)CNc1cccc(O)c1)c1ccc(O)c(C)c1O [k-1:D-1] | – | – | – | – | – | – | – | – | – | – | – | – | 98.5% | 97.2% | 99.7% | 99.9% | 101% | 97.9% |
| CC/C(=N\NC(=O)NCc1cccc(O)c1)c1ccc(O)c(C)c1O [k-1:J-1] | – | – | – | – | – | – | – | – | – | – | – | – | 89.7% | 51.3% | 94% | 95.1% | 99.6% | 78.3% |

Continued, in another order:

| pIC50 (PKACβ; [1]) | inhibition at 0.1 µM (PKACβ; at 100 nM, MSA method) | pIC50 (CGK2; [1]) | inhibition at 0.1 µM (CGK2; at 100 nM, MSA method) | pIC50 (PKACα; [1]) | inhibition at 0.1 µM (PKACα; at 100 nM, MSA method) | pIC50 (SGK2; [1]) | inhibition at 0.1 µM (SGK2; at 100 nM, MSA method) | pIC50 (MSK1; [1]) | inhibition at 0.1 µM (MSK1; at 100 nM, MSA method) | pIC50 (p70S6K; [1]) | inhibition at 0.1 µM (p70S6K; at 100 nM, MSA method) | SMILES | inhibition at 0.1 µM (PKACβ) | inhibition at 0.1 µM (CGK2) | inhibition at 0.1 µM (PKACα) | inhibition at 0.1 µM (SGK2) | inhibition at 0.1 µM (MSK1) | inhibition at 0.1 µM (p70S6K) |
| --- | --- | --- | --- | --- | --- | --- | --- | --- | --- | --- | --- | --- | --- | --- | --- | --- | --- | --- |
| – | 87.7% | – | 77.6% | – | 92.1% | – | 93.6% | – | 99.7% | – | 82% | CCC(=NNC(=O)CNc1ccccc1)c1ccc(O)c(C)c1O [k-1:H-1] | – | – | – | – | – | – |
| – | 72% | – | 80.8% | – | 77.7% | – | 84.3% | – | 94.9% | – | 70.3% | CCC(=NNC(=O)C(CC)Nc1ccccc1)c1ccc(O)c(C)c1O (stereo not drawn) [k-1:H-7] | – | – | – | – | – | – |
